pIC50: −log10 of the molar value.

We go through 17 molecules from patent publication US11691968B2, “Compound having KDM5 inhibitory activity and pharmaceutical use thereof” (ONO PHARMACEUTICAL CO., LTD., priority 2020, dated 2023).

Data set [1] is described as follows: Brain Concentration in Mice. Format: in vivo. The settings on record: mouse, brain; mice (C57BL/6), oral, 2 h; comparative compound, dose not restated in the sentence; read-out: Unbound-Brain Concentration at 2 h. As for the experimental part: Brain Concentration in Mice
Test compounds were orally administered to mice (C57BL/6) at 1 or 3 mg/kg. Brain samples were collected 2 h after the administration and homogenized with 3-fold volumes of distilled water.
LC-MS/MS analysis was conducted as specified below. Standard calibration samples were prepared using the same matrix and analyzed in the same manner.
Standard calibration samples were analyzed to calculate a regression equation from the peak area ratio (test compound/internal standard). The peak area ratio was determined for a measurement sample and assigned to the regression equation to calculate an assay value.

The target of a further data set is KDM5A (Homo sapiens (Human), UniProt P29375). Briefly: Biochemical KDM5A Inhibition Assay (HTRF). The settings on record: KDM5A protein, biotin-labelled H3K4-Me3 substrate. As for the experimental part:
Biochemical KDM5A Inhibition Assay
Using 384-well white Greiner784075 (Greiner), representative compounds were characterized for their inhibition of KDM5A using HTRF® technology (Cisbio Bioassays). Briefly, the test compounds, reference compounds, and DMSO control (typical compound concentration range 1 μM-[…], final assay concentration (FAC*) of DMSO 0.5%) were added to 384-well plate by the Echo® acoustic dispensing platform (Labcyte). Five (5) 1l of KDM5A protein (produced by the method described in Nat Chem Biol 12, 531-538 (2016)). (5-20 nM FAC*) in assay buffer (50 mM MES, 50 mM NaCl, 1 mM TCEP, 0.01% v/v Tween 20, 0.03% BSA, pH 6.5) was added to wells and plates were incubated for 10-20 minutes at 25 degrees celsius. Then, 5 μl of alpha-ketoglutaric acid (100 μM FAC*), biotin-labelled H3K4-Me3 substrate (Anaspec Cat #AS-64357-1; 200 nM FAC*), Fe(II)SO4 (100 μM FAC*) and ascorbic acid (2 mM FAC*) in assay buffer was added to wells and plates were incubated for 20 minutes at room temperature. The reaction was stopped with the addition of 10 μl of anti-H3K4-Me2-Eu(K) (Cisbio Bioassays Cat #61KA2KAH; 0.75 nM FAC**)+Streptavidin XL665 (Cisbio Bioassays Cat #610SAXLB; 25 nM FAC**) in HTRF detection buffer (Cisbio Bioassays Cat #62SDBRDF). The mixture was incubated for 30 minutes at room temperature before 340 nm excitation and measurement of dual emission at 620 nm and 665 run. *FAC: final assay concentration calculated based on 10 μl of the assay buffer**FAC: final assay concentration calculated based on 20 μl of the detection buffer
The raw data (a 665 nm and a 620 nm reading from each well) for individual assay plates were analyzed. The ratio of emissions was calculated using the following calculation: Ratio=(665 nm emission/620 nm emission)×10000. […] Compound IC50 values were calculated from graphs of % inhibition plotted against compound concentration, using a four parameter curve fit. [Results]
(In general: In TR-FRET formats the signal depends on donor and acceptor labels being close together.)

A short description of data set [2]: Metabolic Stability in Human Liver Microsomes. Format: in vitro ADME. As for the experimental part: Metabolic Stability in Human Liver Microsomes
Human liver microsome (BD Gentest Corporation, Cat No. #452161) incubations were conducted in duplicate in 96-well plates. Each well contains 40 μL of 0.1 M potassium phosphate buffer (pH 7.4), 4.125 mM MgCl2, 0.625 mg/mL liver microsomes, and test compound (1.25 μM). After 5-min preincubation at 37° C., 10 uL of 5.0 mM NADPH in 0.1M potassium phosphate buffer was added to initiate the enzymatic reaction. The final component concentrations are 0.1M potassium phosphate buffer (pH 7.4), 1.0 mM NADPH, 3.3 mM MgCl2, 0.5 mg/mL liver microsomes, and test compound (1.0 μM). Reactions were terminated at 0 and 60 min by adding 200 μL of ice-cold acetonitrile containing internal standard.
LC-MS/MS analysis was conducted as specified below.
The remaining at 60 min (%) of test compound was calculated from the peak area ratio (test compound/internal standard) of samples collected 0 and 60 min after the start of the reaction according to the formula described below. Remaining at 60 min (%)=peak area ratio of sample collected at 60 min/peak area ratio of sample collected at 0 min×100 [Results]
Background: Liver microsomes are a subcellular fraction often used to study metabolism.

The mark [3] stands for this setting: 0.5 mg/mL liver microsomes, 1.0 μM test compound, 1.0 mM NADPH, 37° C., 60 min.

KDM5A, sequence (P29375 whole entry): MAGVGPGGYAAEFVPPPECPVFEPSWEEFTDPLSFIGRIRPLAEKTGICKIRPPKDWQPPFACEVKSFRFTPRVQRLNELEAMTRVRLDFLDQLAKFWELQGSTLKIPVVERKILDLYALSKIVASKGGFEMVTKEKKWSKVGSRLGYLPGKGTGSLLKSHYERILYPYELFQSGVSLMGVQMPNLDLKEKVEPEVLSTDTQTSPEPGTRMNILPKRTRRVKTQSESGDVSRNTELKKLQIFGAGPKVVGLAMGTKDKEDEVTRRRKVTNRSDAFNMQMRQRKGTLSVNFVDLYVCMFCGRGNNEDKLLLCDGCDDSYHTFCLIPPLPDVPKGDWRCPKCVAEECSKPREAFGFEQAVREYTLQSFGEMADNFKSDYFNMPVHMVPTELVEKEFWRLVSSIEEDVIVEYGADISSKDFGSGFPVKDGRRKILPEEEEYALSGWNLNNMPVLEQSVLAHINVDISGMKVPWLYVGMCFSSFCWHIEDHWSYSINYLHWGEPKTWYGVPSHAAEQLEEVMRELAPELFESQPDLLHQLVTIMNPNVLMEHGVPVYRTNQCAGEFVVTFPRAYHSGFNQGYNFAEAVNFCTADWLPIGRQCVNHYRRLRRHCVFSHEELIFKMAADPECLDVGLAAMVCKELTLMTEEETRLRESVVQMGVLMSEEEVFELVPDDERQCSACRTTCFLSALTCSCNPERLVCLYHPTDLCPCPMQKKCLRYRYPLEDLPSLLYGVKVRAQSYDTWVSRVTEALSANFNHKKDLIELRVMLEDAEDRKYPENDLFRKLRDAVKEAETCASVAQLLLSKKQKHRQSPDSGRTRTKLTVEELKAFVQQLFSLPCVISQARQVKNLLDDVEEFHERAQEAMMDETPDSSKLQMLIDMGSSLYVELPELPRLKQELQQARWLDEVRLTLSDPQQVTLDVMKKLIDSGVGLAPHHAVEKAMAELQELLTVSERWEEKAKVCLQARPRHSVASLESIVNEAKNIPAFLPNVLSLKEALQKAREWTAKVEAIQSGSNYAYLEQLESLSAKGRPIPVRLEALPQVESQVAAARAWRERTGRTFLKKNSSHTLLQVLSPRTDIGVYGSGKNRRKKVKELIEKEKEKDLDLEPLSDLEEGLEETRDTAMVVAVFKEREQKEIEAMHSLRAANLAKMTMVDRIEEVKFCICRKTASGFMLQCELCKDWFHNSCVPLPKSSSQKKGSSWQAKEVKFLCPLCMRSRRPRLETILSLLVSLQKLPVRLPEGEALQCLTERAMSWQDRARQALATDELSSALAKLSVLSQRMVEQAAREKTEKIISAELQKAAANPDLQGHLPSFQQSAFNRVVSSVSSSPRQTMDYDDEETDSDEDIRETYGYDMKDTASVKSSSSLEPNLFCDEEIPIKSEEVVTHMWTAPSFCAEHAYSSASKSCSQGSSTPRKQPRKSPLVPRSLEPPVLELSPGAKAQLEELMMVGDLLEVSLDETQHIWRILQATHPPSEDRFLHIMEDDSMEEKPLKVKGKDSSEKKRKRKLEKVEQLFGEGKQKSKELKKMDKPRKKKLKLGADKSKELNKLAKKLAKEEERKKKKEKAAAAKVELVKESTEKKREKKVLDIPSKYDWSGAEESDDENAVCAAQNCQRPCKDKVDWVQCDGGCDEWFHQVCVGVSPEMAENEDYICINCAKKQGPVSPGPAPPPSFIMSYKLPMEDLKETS

In the case of `CC(C)c1cc(C(=O)N2CC[C@@H](NC(=O)C3CC3)C2)[nH]n1` [comparative compound, (R)—N-(1-(3-isopropyl-1H-pyrazole-5-carbonyl)pyrrolidin-3-yl)cyclopropane carboxamide, reference compound], in data set [1], the concentration at 2 h stood at 2.5 ng/g.
With `C[C@@H](c1ccc(C#N)cc1)n1cnc(C(=O)N2C[C@@H]3[C@H](C2)[C@H]3C2=NOC(C)(C)C2)c1` [Example 24, 4-[(1S)-1-(4-{[(1R,5S,6S)-6-(5,5-dimethyl-4,5-dihydro-1,2-oxazol-3-yl)-3-azabicyclo[3.1.0]hex-3-yl]carbonyl}-1H-imidazol-1-yl)ethyl]benzonitrile], the negative-log IC50 (pIC50) on KDM5A was 6.70. For the same molecule, in data set [2] (human, microsomes, 1 h), the “Metabolic stability in human liver microsomes (% remaining at 60 min)” value (“Metabolic stability … (% remaining at 60 min)” below) is listed as 101%.
With `CC(C)n1cnc(C(=O)N2C[C@@H]3[C@H](C2)[C@H]3C(=O)N(C)C(C)(C)C)c1` [Example 66, (1R,5S,6r)-N-tert-butyl-N-methyl-3-[1-(propan-2-yl)-1H-imidazole-4-carbonyl]-3-azabicyclo[3.1.0]hexane-6-carboxamide], the pIC50 at KDM5A was 7.52. In addition, in data set [2] (setting [3]), the “Metabolic stability … (% remaining at 60 min)” value amounted to 89%.
As to `CC(C)c1cc(C(=O)N2C[C@@H]3[C@H](C2)[C@H]3c2nncn2-c2ccccc2)n[nH]1` [Example 121, (5-isopropyl-1H-pyrazol-3-yl)[(1R,5S,6r)-6-(4-phenyl-4H-1,2,4-triazol-3-yl)-3-azabicyclo[3.1.0]hex-3-yl]methanone], the pIC50 against KDM5A was 7.40. Moreover, the “Metabolic stability … (% remaining at 60 min)” value in data set [2] (human, microsomes, 1 h) is on record as 114%.
For `CC(n1cnc(C(=O)N2C[C@@H]3C(C4=NOC(C)(C)C4)[C@@H]3C2)c1)C(F)(F)F` (stereo partly drawn) [Example 9, [(1R,5S,6r)-6-(5,5-dimethyl-4,5-dihydro-1,2-oxazol-3-yl)-3-azabicyclo[3.1.0]hex-3-yl][1-(1,1,1-trifluoropropan-2-yl)-1H-imidazol-4-yl]methanone], in that order: 6.40 and 93%.
For the molecule `CC(C)c1cc(C(=O)N2C[C@@H]3[C@H](C2)[C@H]3C2=NO[C@H]3C[C@@H]23)n[nH]1` [Example 96, (5-isopropyl-1H-pyrazol-3-yl){(1R,5S,6r)-6-[(1S,5S)-2-oxa-3-azabicyclo[3.1.0]hex-3-en-4-yl]-3-azabicyclo[3.1.0]hex-3-yl}methanone], the negative-log IC50 (pIC50) against KDM5A was 7.52. Besides, in data set [2] (human, microsomes, 1 h), the “Metabolic stability … (% remaining at 60 min)” value turned out to be 83%.
`CC(C)n1cnc(C(=O)N2C[C@@H]3[C@H](C2)[C@H]3c2nnn3ccccc23)c1` [Example 62, (1-isopropyl-1H-imidazol-4-yl)[(1R,5S,6r)-6-([1,2,3]triazolo[1,5-a]pyridin-3-yl)-3-azabicyclo[3.1.0]hex-3-yl]methanone]: at KDM5A, the pIC50 is 8.00. In data set [2] (human, microsomes, 1 h), the “Metabolic stability … (% remaining at 60 min)” value amounted to 83%.
In the same order, the values of `CC(C)n1cnc(C(=O)N2C[C@@H]3[C@H](C2)[C@H]3C(=O)C2CC2)c1` [Example 75, cyclopropyl{(1R,5S,6r)-3-[(1-isopropyl-1H-imidazol-4-yl)carbonyl]-3-azabicyclo[3.1.0]hex-6-yl}methanone] are 6.40 and 102%.
Consider `C[C@@H](c1nccs1)n1cnc(C(=O)N2C[C@@H]3[C@H](C2)[C@H]3C2=NOC(C)(C)C2)c1` [Example 27, [(1R,5S,6S)-6-(5,5-dimethyl-4,5-dihydro-1,2-oxazol-3-yl)-3-azabicyclo[3.1.0]hex-3-yl]{1-[(1S)-1-(1,3-thiazol-2-yl)ethyl]-1H-imidazol-4-yl}methanone], for which the pIC50 at KDM5A was 6.00. In data set [2] (human, microsomes, 1 h), the “Metabolic stability … (% remaining at 60 min)” value was determined as 97%.
`CC(c1cc(C(=O)N2C[C@@H]3C(C4=NOC(C)(C)C4)[C@@H]3C2)n[nH]1)C1CC1` (stereo partly drawn) [Example 90, [5-(1-cyclopropylethyl)-1H-pyrazol-3-yl][(1R,5S,6r)-6-(5,5-dimethyl-4,5-dihydro-1,2-oxazol-3-yl)-3-azabicyclo[3.1.0]hex-3-yl]methanone] gave a pIC50 against KDM5A of 7.30. Moreover, the “Metabolic stability … (% remaining at 60 min)” value in data set [2] (setting [3]) is recorded as 100%.
In the same order, the values of `CC(C)n1cnc(C(=O)N2C[C@@H]3C(C4=NOC(C)(C(F)F)C4)[C@@H]3C2)c1` (stereo partly drawn) [Example 40, {(1R,5S,6r)-6-[5-(difluoromethyl)-5-methyl-4,5-dihydro-1,2-oxazol-3-yl]-3-azabicyclo[3.1.0]hex-3-yl}(1-isopropyl-1H-imidazol-4-yl)methanone] are 6.70 and 103%.
In the same order, the values of `CC(C)n1cnc(C(=O)N2C[C@@H]3[C@H](C2)[C@H]3C(=O)NC(C)(C)C)c1` [Example 65, (1R,5S,6r)-N-tert-butyl-3-[1-(propan-2-yl)-1H-imidazole-4-carbonyl]-3-azabicyclo[3.1.0]hexane-6-carboxamide] are 7.70 and 93%.
For `CC(C)n1cnc(C(=O)N2C[C@@H]3[C@H](C2)[C@@]3(C)C(=O)NC(C)(C)C)c1` [Example 87, (1R,5S,6r)-N-tert-butyl-6-methyl-3-[1-(propan-2-yl)-1H-imidazole-4-carbonyl]-3-azabicyclo[3.1.0]hexane-6-carboxamide], in that order: 7.40 and 99%.
At KDM5A, `CC(C)n1cnc(C(=O)N2C[C@@H]3[C@H](C2)[C@@]3(C)C2=NOC3(CC3)C2)c1` [Example 84, (1-isopropyl-1H-imidazol-4-yl)[(1R,5S,6r)-6-methyl-6-(4-oxa-5-azaspiro[2.4]hept-5-en-6-yl)-3-azabicyclo[3.1.0]hex-3-yl]methanone] showed a pIC50 of 7.52. Besides, in data set [2] (setting [3]), the “Metabolic stability … (% remaining at 60 min)” value came to 92%.
On KDM5A, `Cc1nnc([C@H]2[C@@H]3CN(C(=O)c4cc(C(C)C)[nH]n4)C[C@@H]32)n1C1CCC1` [Example 124, [(1R,5S,6r)-6-(4-cyclobutyl-5-methyl-4H-1,2,4-triazol-3-yl)-3-azabicyclo[3.1.0]hex-3-yl](5-isopropyl-1H-pyrazol-3-yl)methanone] had a negative-log IC50 (pIC50) of 7.40. In data set [2] (human, microsomes, 1 h), the “Metabolic stability … (% remaining at 60 min)” value came out at 97%.
For `Cc1nnc([C@H]2[C@@H]3CN(C(=O)c4cc(C(C)C)[nH]n4)C[C@@H]32)o1` [Example 119, (5-isopropyl-1H-pyrazol-3-yl)[(1R,5S,6r)-6-(5-methyl-1,3,4-oxadiazol-2-yl)-3-azabicyclo[3.1.0]hex-3-yl]methanone], at KDM5A, the pIC50 is 6.52. Also, in data set [2] (human, microsomes, 1 h), the “Metabolic stability … (% remaining at 60 min)” value was 102%.
On KDM5A, `CC(C)n1cnc(C(=O)N2C[C@@H]3[C@H](C2)[C@H]3C2=NOC(C)(C)N2C)c1` [Example 59, (1-isopropyl-1H-imidazol-4-yl)[(1R,5S,6r)-6-(4,5,5-trimethyl-4,5-dihydro-1,2,4-oxadiazol-3-yl)-3-azabicyclo[3.1.0]hex-3-yl]methanone] showed a pIC50 of 7.70. For the same molecule, the “Metabolic stability … (% remaining at 60 min)” value in data set [2] (human, microsomes, 1 h) is reported as 100%.

A word on the pIC50: it is the negative decadic logarithm of the IC50, by convention in mol/L. The low end stands for a large IC50, the high end for a small IC50.
